Experimental data: patent US10174044B2, “Fused pyridines as kinase inhibitors” (BRISTOL-MYERS SQUIBB COMPANY, priority 2015, dated 2019)

The compounds below were run against GST-Xa-hAAK1 (Homo sapiens (Human), UniProt Q2M2I8) (assay: AAK1 Kinase Assay). Conditions: bacterially expressed GST-Xa-hAAK1 3.5 nM; ATP 22 μM; fluoresceinated peptide substrate 1.5 μM; 3 hours at room temperature.
Assay type: biochemical
Description: The assays were performed in U-bottom 384-well plates. […] The reactions were initiated by the combination of bacterially expressed, GST-Xa-hAAK1 with substrates and test compounds. The reactions were incubated at room temperature for 3 hours and terminated by adding 60 μl of 35 mM EDTA buffer to each sample. The reactions were analyzed on the Caliper LabChip 3000 (Caliper, Hopkinton, Mass.) by electrophoretic separation of the fluorescent substrate and phosphorylated product. […] Compounds were dissolved at 10 mM in dimethylsulfoxide (DMSO) and evaluated at eleven concentrations. IC50 values were derived by non-linear regression analysis.

Chain of GST-Xa-hAAK1 (Q2M2I8 whole entry): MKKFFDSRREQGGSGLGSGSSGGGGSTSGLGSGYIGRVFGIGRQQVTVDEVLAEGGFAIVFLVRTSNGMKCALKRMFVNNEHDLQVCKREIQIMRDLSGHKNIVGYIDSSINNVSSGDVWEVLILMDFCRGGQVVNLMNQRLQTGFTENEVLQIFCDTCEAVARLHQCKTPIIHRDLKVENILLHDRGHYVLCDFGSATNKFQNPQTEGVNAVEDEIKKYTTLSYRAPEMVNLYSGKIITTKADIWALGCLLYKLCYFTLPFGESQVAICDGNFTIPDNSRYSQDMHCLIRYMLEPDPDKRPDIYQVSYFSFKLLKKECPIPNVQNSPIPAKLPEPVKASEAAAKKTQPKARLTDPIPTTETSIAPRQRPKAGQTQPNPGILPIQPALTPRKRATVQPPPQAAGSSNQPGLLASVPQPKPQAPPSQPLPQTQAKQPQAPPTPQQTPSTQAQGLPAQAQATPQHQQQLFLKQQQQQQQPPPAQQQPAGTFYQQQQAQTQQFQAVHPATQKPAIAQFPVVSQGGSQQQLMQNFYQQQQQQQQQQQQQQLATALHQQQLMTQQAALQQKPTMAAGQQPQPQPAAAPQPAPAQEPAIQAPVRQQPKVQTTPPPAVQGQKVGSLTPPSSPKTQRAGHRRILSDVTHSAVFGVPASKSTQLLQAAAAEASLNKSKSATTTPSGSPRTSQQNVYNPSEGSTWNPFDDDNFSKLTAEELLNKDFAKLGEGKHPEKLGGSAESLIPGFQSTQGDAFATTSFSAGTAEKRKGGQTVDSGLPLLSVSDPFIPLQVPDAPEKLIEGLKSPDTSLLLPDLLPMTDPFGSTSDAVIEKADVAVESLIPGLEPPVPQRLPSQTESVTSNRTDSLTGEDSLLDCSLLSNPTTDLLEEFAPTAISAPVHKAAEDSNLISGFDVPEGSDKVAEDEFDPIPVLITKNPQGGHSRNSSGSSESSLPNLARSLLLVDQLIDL

| IC50 [nM] | SMILES |
| --- | --- |
| 9.5 | CC(C)C[C@H](N)COc1ccc2c(c1)c(=O)[nH]c1cnccc12 [Example 1, (S)-8-((2-amino-4-methylpentyl)oxy)benzo[c][1,7]naphthyridin-6(5H)-one] |
| 37 | CC(C)C[C@H](N)COc1ccc2c(c1)c(=O)n(C)c1cnccc21 [Example 2, (S)-8-((2-amino-4-methylpentyl)oxy)-5-methylbenzo[c][1,7]naphthyridin-6(5H)-one] |
| 3.2 | Cc1cc2c(cc1OC[C@@H](N)CC(C)C)c(=O)n(C)c1cnccc21 [Example 3, (S)-8-((2-amino-4-methylpentyl)oxy)-5,9-dimethylbenzo[c][1,7]naphthyridin-6(5H)-one] |
| 14 | Cc1cc2c(cc1OC[C@@H](N)CC(C)C)c(=O)n(C)c1c(C)nccc21 [Example 4, (S)-8-((2-amino-4-methylpentyl)oxy)-4,5,9-trimethylbenzo[c][1,7]naphthyridin-6(5H)-one] |
| 87 | Cc1nccc2c3cc(Cl)c(OC[C@@H](N)CC(C)C)cc3c(=O)n(C)c12 [Example 5, (S)-8-((2-amino-4-methylpentyl)oxy)-9-chloro-4,5-dimethylbenzo[c][1,7]naphthyridin-6(5H)-one] |
| 3.7 | Cc1cc2c(cc1OCC(N)CCC(F)(F)F)c(=O)n(C)c1cnccc21 (centres unmarked) [Example 6, 8-((2-amino-5,5,5-trifluoropentyl)oxy)-5,9-dimethylbenzo[c][1,7]naphthyridin-6(5H)-one] |
| 31 | CC(C)CC(C)(N)COc1ccc2c(c1)c(=O)n(C)c1cnccc21 (centres unmarked) [Example 7, 8-((2-amino-2,4-dimethylpentyl)oxy)-5-methylbenzo[c][1,7]naphthyridin-6(5H)-one] |
| 2.6 | CC(C)CC(C)(N)COc1ccc2c(c1)c(=O)[nH]c1cnccc12 (centres unmarked) [Example 8, 8-((2-amino-2,4-dimethylpentyl)oxy)benzo[c][1,7]naphthyridin-6(5H)-one] |
| 49 | Cc1nccc2c3ccc(OCC(C)(N)CC(C)C)cc3c(=O)n(C)c12 (centres unmarked) [Example 9, 8-((2-amino-2,4-dimethylpentyl)oxy)-4,5-dimethylbenzo[c][1,7]naphthyridin-6(5H)-one] |
| 35 | Cc1nccc2c3ccc(OC[C@@](C)(N)CC(C)C)cc3c(=O)n(C)c12 [Example 10, (S)-8-((2-amino-2,4-dimethylpentyl)oxy)-4,5-dimethylbenzo[c][1,7]naphthyridin-6(5H)-one] |
| 92 | Cc1nccc2c3ccc(OC[C@](C)(N)CC(C)C)cc3c(=O)n(C)c12 [Example 11, (R)-8-((2-amino-2,4-dimethylpentyl)oxy)-4,5-dimethylbenzo[c][1,7]naphthyridin-6(5H)-one] |
| 30 | [2H]C([2H])(Oc1cc2c(=O)n(CC)c3c(C)nccc3c2cc1Cl)C(C)(N)CC(C)C (centres unmarked) [Example 12, 8-((2-amino-1,1-dideutero-2,4-dimethylpentyl)oxy)-9-chloro-5-ethyl-4-methylbenzo[c][1,7]naphthyridin-6(5H)-one] |
| 117 | [2H]C([2H])(Oc1ccc2c(c1)c(=O)n(C)c1c(C)nccc21)C(C)(N)CC(C)C (centres unmarked) [Example 13, 8-((2-amino-1,1-dideutero-2,4-dimethylpentyl)oxy)-4,5-dimethylbenzo[c][1,7]naphthyridin-6(5H)-one] |
| 8.1 | Cc1cc2c3ccc(OC[C@@](C)(N)CC(C)C)cc3c(=O)n(C)c2cn1 [Example 14, (S)-8-((2-amino-2,4-dimethylpentyl)oxy)-2,5-dimethylbenzo[c][1,7]naphthyridin-6(5H)-one] |
| 59 | Cc1nccc2c3ccc(OC[C@@](C)(N)CC(C)C)c(Cl)c3c(=O)n(C)c12 [Example 15, (S)-8-((2-amino-2,4-dimethylpentyl)oxy)-7-chloro-4,5-dimethylbenzo[c][1,7]naphthyridin-6(5H)-one] |
| 24 | CCn1c(=O)c2cc(OC[C@@](C)(N)CC(C)C)c(Cl)cc2c2ccnc(C)c21 [Example 16, (S)-8-((2-amino-2,4-dimethylpentyl)oxy)-9-chloro-5-ethyl-4-methylbenzo[c][1,7]naphthyridin-6(5H)-one] |
| 3 | Cc1cc2c3ccc(OC[C@@](C)(N)CC(C)C)c(Cl)c3c(=O)n(C)c2cn1 [Example 18, (S)-8-((2-amino-2,4-dimethylpentyl)oxy)-7-chloro-2,5-dimethylbenzo[c][1,7]naphthyridin-6(5H)-one] |
| 1340 | CCn1c(=O)c2cc(OC[C@@](C)(N)CC(C)C)ccc2c2ccnc(C)c21 [Example 19, (S)-8-((2-amino-2,4-dimethylpentyl)oxy)-5-ethyl-4-methylbenzo[c][1,7]naphthyridin-6(5H)-one] |
| 4.1 | Cc1cc2c3ccc(OC[C@@](C)(N)CC(C)C)c(C)c3c(=O)n(C)c2cn1 [Example 20, (S)-8-((2-amino-2,4-dimethylpentyl)oxy)-2,5,7-trimethylbenzo[c][1,7]naphthyridin-6(5H)-one] |

| IC50 [nM] | SMILES |
| --- | --- |
| 1130 | Cc1nccc2c3ccc(OC[C@@](C)(N)CC(C)C)cc3c(=O)n(CCO)c12 [Example 21, (S)-8-((2-amino-2,4-dimethylpentyl)oxy)-5-(2-hydroxyethyl)-4-methylbenzo[c][1,7]naphthyridin-6(5H)-one] |
| 3.2 | [2H]C([2H])([2H])n1c(=O)c2cc(OC[C@@](C)(N)CC(C)C)c(Cl)cc2c2ccnc(C)c21 [Example 22, (S)-8-((2-amino-2,4-dimethylpentyl)oxy)-9-chloro-4-methyl-5-(trideuteromethyl)benzo[c][1,7]naphthyridin-6(5H)-one] |
| 46 | [2H]C([2H])([2H])n1c(=O)c2cc(OC[C@@](C)(N)CC(C)C)ccc2c2ccnc(C)c21 [Example 23, (S)-8-((2-amino-2,4-dimethylpentyl)oxy)-4-methyl-5-(trideuteromethyl)benzo[c][1,7]naphthyridin-6(5H)-one] |
| 69 | Cc1nccc2c3cc(C#N)c(OC[C@@](C)(N)CC(C)C)cc3c(=O)n(C3CC3)c12 [Example 24, (S)-8-((2-amino-2,4-dimethylpentyl)oxy)-5-cyclopropyl-4-methyl-6-oxo-5,6-dihydrobenzo[c][1,7]naphthyridine-9-carbonitrile] |
| 227 | Cc1nccc2c3cc(Cl)c(OC[C@@](C)(N)CC(C)C)cc3c(=O)n(C(C)C)c12 [Example 25, (S)-8-((2-amino-2,4-dimethylpentyl)oxy)-9-chloro-5-isopropyl-4-methylbenzo[c][1,7]naphthyridin-6(5H)-one] |
| 5.4 | Cc1cc2c(cc1OC[C@@](C)(N)CC(C)C)c(=O)n(C)c1c(C)nccc21 [Example 26, (S)-8-((2-amino-2,4-dimethylpentyl)oxy)-4,5,9-trimethylbenzo[c][1,7]naphthyridin-6(5H)-one] |
| 1.7 | Cc1nccc2c3cc(Cl)c(OC[C@@](C)(N)CC(C)C)cc3c(=O)n(C)c12 [Example 27, (S)-8-((2-amino-2,4-dimethylpentyl)oxy)-9-chloro-4,5-dimethylbenzo[c][1,7]naphthyridin-6(5H)-one] |
| 611 | Cc1nccc2c1[nH]c(=O)c1cc(OC[C@@](C)(N)CC(C)C)c(Cl)cc12 [Example 28, (S)-8-((2-amino-2,4-dimethylpentyl)oxy)-9-chloro-4-methylbenzo[c][1,7]naphthyridin-6(5H)-one] |
| 13 | CC(C)C[C@H](N)COc1ccc2c(c1)COc1cnccc1-2 [Example 29, (S)-1-((6H-isochromeno[3,4-c]pyridin-8-yl)oxy)-4-methylpentan-2-amine] |
| 17 | CC(C)C[C@H](N)COc1ccc2c(c1)C(C)Oc1cnccc1-2 (stereo partly drawn) [Example 30, (2S)-4-methyl-1-((6-methyl-6H-isochromeno[3,4-c]pyridin-8-yl)oxy)pentan-2-amine] |
| 235 | CC(C)C[C@H](N)COc1ccc2c(c1)C(C)(C)Oc1cnccc1-2 [Example 31, (S)-1-((6,6-dimethyl-6H-isochromeno[3,4-c]pyridin-8-yl)oxy)-4-methylpentan-2-amine] |
| 3.2 | Cc1cc2c(cc1OC[C@@H](N)CC(C)C)COc1cnccc1-2 [Example 32, (S)-4-methyl-1-((9-methyl-6H-isochromeno[3,4-c]pyridin-8-yl)oxy)pentan-2-amine] |
| 2.1 | CC(=O)Nc1cc2c(cn1)OCc1cc(OC[C@@H](N)CC(C)C)ccc1-2 [Example 33, (S)—N-(8-((2-amino-4-methylpentyl)oxy)-6H-isochromeno[3,4-c]pyridin-2-yl)acetamide] |
| 3.8 | COC(=O)Nc1cc2c(cn1)OCc1cc(OC[C@@H](N)CC(C)C)ccc1-2 [Example 34, (S)-methyl (8-((2-amino-4-methylpentyl)oxy)-6H-isochromeno[3,4-c]pyridin-2-yl)carbamate] |
| 11 | CC(C)C[C@H](N)COc1ccc2c(c1)COc1cnc(N)cc1-2 [Example 35, (S)-8-((2-amino-4-methylpentyl)oxy)-6H-isochromeno[3,4-c]pyridin-2-amine] |
| 2.6 | CC(=O)Nc1cc2c(cn1)OCc1cc(OCC(C)(N)CC(C)C)ccc1-2 (centres unmarked) [Example 36, N-(8-((2-amino-2,4-dimethylpentyl)oxy)-6H-isochromeno[3,4-c]pyridin-2-yl)acetamide] |
| 2.4 | CC(=O)Nc1cc2c(cn1)OCc1cc(OC[C@@](C)(N)CC(C)C)ccc1-2 [Example 37, (S)—N-(8-((2-amino-2,4-dimethylpentyl)oxy)-6H-isochromeno[3,4-c]pyridin-2-yl)acetamide] |
| 7.7 | CC(=O)Nc1cc2c(cn1)OCc1cc(OC[C@](C)(N)CC(C)C)ccc1-2 [Example 38, (R)—N-(8-((2-amino-2,4-dimethylpentyl)oxy)-6H-isochromeno[3,4-c]pyridin-2-yl)acetamide] |
| 8.1 | COC(=O)Nc1cc2c(cn1)OCc1cc(OCC(C)(N)CC(C)C)ccc1-2 (centres unmarked) [Example 39, methyl (8-((2-amino-2,4-dimethylpentyl)oxy)-6H-isochromeno[3,4-c]pyridin-2-yl)carbamate] |
